Results taken from US7119063B2, “Memory-enhancing peptides and the use thereof” (Shanghai Cas Intide Biotech Co., Ltd., priority 2000, dated 2006).

System: learning and memory process of mouse
Assay: platform-jumping electrical-shock avoidance test, learning and 24 h memory, scopolamine-induced impediment
Type: in vivo
Conditions: for Memory Results EN / Memory Results RT / Learning Results EN / Learning Results RT: scopolamine 1 mg/kg; for Memory Results EN / Memory Results RT: memory test 24 hrs later; for Learning Results EN / Learning Results RT: training trial
Experimental: The pharmacological tests of memory-enhancing peptide in this invention have been performed as following: the animals have been divided into three groups: drug administration group, control group and model group, with each group administrated with memory-enhancing peptide, saline and scopolamine respectively. In the test, the groups except control group were injected with scopolamine after the administration of medicine about 50 min., 10 min. later, the training began. First, the animals will be put into reaction box for 3 min. before each trails to familiarize them with the environment. Then, the reaction box are charged with 36V alternating current. When the animal subjects to electrical shock, it will jump up to the central platform to avoid harmful stimulation as a normal response. Most of animals may be return to the copper curdles twice or even more times, but they will jump back to the platform swiftly as the results of electrical shock. Each test trail will be performed for 5 min. and two following indices will be used to represent the learning results: (I) the number of total error (EN) during the whole training period; (2) the reaction time (RT) for the first returning to the copper curdle in the trail. The trails will repeat again 24 hrs later as memory test.

| Compound | effect on memory and learning impediment induced by scopolamine, compared with model group (0.5 μg and 1 μg/kg, longer incubation period and lesser error numbers, P<0.01) | effect on memory and learning impediment induced by scopolamine, compared with Huperzine A (100 μg/kg) (0.5 μg/kg and 1 μg/kg) | Memory Results EN (drug 0.25 μg/kg) | Memory Results RT (drug 0.25 μg/kg) [s] | Learning Results EN (drug 0.25 μg/kg) | Learning Results RT (drug 0.25 μg/kg) [s] | Memory Results EN (drug 0.5 μg/kg) | Memory Results RT (drug 0.5 μg/kg) [s] | Learning Results EN (drug 0.5 μg/kg) | Learning Results RT (drug 0.5 μg/kg) [s] | Memory Results EN (drug 1 μg/kg) | Memory Results RT (drug 1 μg/kg) [s] | Learning Results EN (drug 1 μg/kg) | Learning Results RT (drug 1 μg/kg) [s] | effect on memory and learning impediment induced by scopolamine (summary of Table 1) (mouse, in vivo) | Memory Results EN (drug 100 μg/kg) | Memory Results RT (drug 100 μg/kg) [s] | Learning Results EN (drug 100 μg/kg, number of total errors) | Learning Results RT (drug 100 μg/kg, reaction time for first return to the copper curdle) [s] |
| --- | --- | --- | --- | --- | --- | --- | --- | --- | --- | --- | --- | --- | --- | --- | --- | --- | --- | --- | --- |
| PyroGlu-Asn-Cys(S-Bu^t)-Pro-Arg [MEP-531] | obviously improve | better effects than Huperzine A | 0.9 | 197.6 | 0.3 | 78.8 | 0.5 | 245.5 | 0.2 | 241.6 | 0.3 | 282.8 | 0.3 | 267.6 | remarkably ameliorate | – | – | – | – |
| C/C=C1\[C@H]2C=C(C)C[C@]1(N)c1ccc(=O)[nH]c1C2 [Huperzine A, reference compound] | – | – | – | – | – | – | – | – | – | – | – | – | – | – | – | 0.9 | 231.9 | 1.3 | 120.5 |
